# Molecular target: T1, GABAA receptor β2 subunit (α1β2γ2 GABAA receptor) (Rattus norvegicus, UniProt P63138)
# T1 construct: gene Gabrb2; recombinant α1β2γ2 receptor expressed in Xenopus oocytes; also concatenated α1-β2-α1/γ2-β2; with GABAA receptor α1 and γ2 subunits
# Assay: two-electrode voltage clamp in Xenopus oocytes, potentiation of GABA currents; beta1/beta2 concatemers and point mutants
# Format: cell-based
# T1 sequence (P63138 26-474): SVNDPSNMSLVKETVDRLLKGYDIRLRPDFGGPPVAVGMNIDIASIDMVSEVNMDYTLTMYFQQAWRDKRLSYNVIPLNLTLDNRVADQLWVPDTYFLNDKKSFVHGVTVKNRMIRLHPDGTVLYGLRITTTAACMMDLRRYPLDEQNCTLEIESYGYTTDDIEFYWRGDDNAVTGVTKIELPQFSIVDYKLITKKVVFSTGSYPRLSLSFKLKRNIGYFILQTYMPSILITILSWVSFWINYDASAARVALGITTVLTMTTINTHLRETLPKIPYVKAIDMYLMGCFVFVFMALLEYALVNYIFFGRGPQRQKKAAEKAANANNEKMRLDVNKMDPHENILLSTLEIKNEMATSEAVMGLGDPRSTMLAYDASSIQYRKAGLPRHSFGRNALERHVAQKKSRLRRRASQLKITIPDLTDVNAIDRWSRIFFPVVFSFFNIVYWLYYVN
# T1 sequence (P62813 28-455 partner): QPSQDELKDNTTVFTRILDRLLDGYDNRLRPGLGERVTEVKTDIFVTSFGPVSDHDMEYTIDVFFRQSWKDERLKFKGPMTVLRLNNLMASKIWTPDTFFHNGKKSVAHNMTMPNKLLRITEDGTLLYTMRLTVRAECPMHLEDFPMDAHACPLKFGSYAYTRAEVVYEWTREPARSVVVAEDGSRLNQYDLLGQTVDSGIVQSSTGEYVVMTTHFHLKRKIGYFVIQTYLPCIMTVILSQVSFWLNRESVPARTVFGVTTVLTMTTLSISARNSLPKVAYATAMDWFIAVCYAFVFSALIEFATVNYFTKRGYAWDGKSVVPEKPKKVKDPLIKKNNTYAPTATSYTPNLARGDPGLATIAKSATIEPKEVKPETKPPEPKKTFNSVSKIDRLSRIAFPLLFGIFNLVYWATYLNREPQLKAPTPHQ
# T1 sequence (P18508 39-466 partner): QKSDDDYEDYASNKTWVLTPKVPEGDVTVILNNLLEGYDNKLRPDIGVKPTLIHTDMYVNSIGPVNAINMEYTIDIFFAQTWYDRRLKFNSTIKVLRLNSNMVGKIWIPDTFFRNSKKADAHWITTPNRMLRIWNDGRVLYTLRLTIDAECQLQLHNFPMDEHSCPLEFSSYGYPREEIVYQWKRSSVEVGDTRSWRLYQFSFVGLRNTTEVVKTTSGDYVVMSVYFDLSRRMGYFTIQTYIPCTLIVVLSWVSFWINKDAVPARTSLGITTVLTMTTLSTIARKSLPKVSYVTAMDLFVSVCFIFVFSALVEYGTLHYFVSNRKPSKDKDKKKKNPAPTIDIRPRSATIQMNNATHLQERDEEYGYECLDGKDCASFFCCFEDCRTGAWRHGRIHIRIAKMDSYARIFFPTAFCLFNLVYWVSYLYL
compound,measurement,value
CCCCC/C=C\C/C=C\C/C=C\C/C=C\CCCC(=O)NCC(=O)O [NA-glycine],EC50,1 to 10 µM
